How the values were obtained:
Type in all cases: in vivo
Myzus persicae [1] = test: Analysis of repellent effect: choice test between control Ap3 medium and test medium, phagostimulation index; details: Myzus persicae larvae, doses 0 to 1 mM in Ap3 medium
From the text: a) Analysis of repellent effect: the method used is that developed by Yvan Rahbe (Rahbé & Febvay (1993) Entomologia Experimentalis et Applicata 67: 149-160; Chen (1996) Thesis submitted to Institut National des Sciences Appliquées, Lyon, France: 158 p) within the scope of research on the chemical determinants of the resistance of plants to various species of aphids (Aphis gossypii, Acyrthosiphon pisum), and adapted to the green aphid Myzus persicae.
The objective is to evaluate the attractive or repellent nature of a candidate molecule, at different concentrations, either with respect to control base medium (dose “0”), or with respect to another substance. […]
The medium (35 μl) is poured between two Parafilm® membranes stretched onto an Eppendorf® cone. […] The following morning, the number of aphids fixed on each medium is then recorded. […] A phagostimulation index, representing the degree of appetence of the test medium for the aphid, is calculated as follows: […]

Myzus persicae [2] = test: Toxicity on larval growth (cumulative larval mortality on supplemented Ap3 medium), green peach aphid; details: larval growth D1-D7
Description: (§1) b) Measurement of the toxicity of chicoric acid or caftaric acid on larval growth of the green peach aphid (Myzus persicae) and the pea aphid (Acyrthosiphon pisum)
(§2) The objective is to quantify the toxic effect of chicoric acid or caftaric acid on the aphid for the period of larval growth thereof, i.e. 8 to 10 days for Myzus persicae and Acyrthosiphon pisum at 19° C. The molecule is added at different concentrations to the Ap3 control nutrient medium. The dose “0” corresponds to Ap3 medium alone.
(§3) The medium (75 μl) is poured between two UV-sterilized Parafilm® stretched onto a cylindrical PVC support (h=1.5 cm, d=2 cm), under sterile conditions.
(§4) On the Day D0, 20 neonate larvae are deposited inside the cylinder, which is then turned over and applied to a square of Parafilm©. The dishes are placed in filtered light (16 hours day/8 hours night) and in a chamber at 19° C. The fixation percentage is recorded after 1 hour as a short-term phagostimulation indicator and to check that no anomaly occurred during aphid deposition. The larval mortality is recorded daily at the end of the day. […] On the day of the imaginal moult thereof, the aphids having reached the adult aptera stage are deposited successively on a precision balance (d=0.01 mg) and the cumulative weights are recorded for each concentration of each of the two molecules tested. The individual weights are calculated subsequently. […]

Acyrthosiphon pisum = test: Toxicity on larval growth (cumulative larval mortality on supplemented Ap3 medium), pea aphid
Description: as §1, §2, §3, §4

`O=C(/C=C/c1ccc(O)c(O)c1)O[C@@H](C(=O)O)[C@@H](OC(=O)/C=C/c1ccc(O)c(O)c1)C(=O)O` [chicoric acid, dicaffeyl tartaric acid] was tested, and the “dose from which a highly significant repellent effect is displayed” value (Myzus persicae [1]; 15 hours at 19° C.) was ≥ 62.5 µM, the “repellent effect (result in words)” value (Myzus persicae [1]) was “significant repellent effect” and the larval mortality (Myzus persicae [2]; from 0.125 mM in Ap3 medium) was ~80%. The larval mortality (Myzus persicae [2]; from 0.25 mM in Ap3 medium) was 100%, the “dose from which a very significant toxic effect (p<0.001) is observed” value (Acyrthosiphon pisum; Acyrthosiphon pisum larval growth) was ≥ 0.5 mM and the mortality at 500 µM (Acyrthosiphon pisum; Acyrthosiphon pisum, read-out: larval mortality) was > 80%.

From patent US20170006866A1, “PHYTOSANITARY COMPOSITION” (INSTITUT NATIONAL DE LA RECHERCHE AGRONOMIQUE-INRA, priority 2014, published 2017)
